Data reported in patent US6943183B2 (Pfizer Inc, priority 2000, dated 2005).

Molecular target: T1, SF9 affinity purified rat FPT (Rattus norvegicus, UniProt Q02293+Q04631)
T1 construct: made in house; host or cells: Sf9 insect cells
Assay: PFT (FPT) inhibitory activity assay, radiolabeled farnesyl pyrophosphate and biotinyl peptide, streptavidin beads
Format: biochemical
Details: HEPES buffer pH 7.4, 30° C., 30 minutes; read-out: FTase IC50
Protocol: The PFT or FPT inhibitory activity of compounds of the present invention were assayed in HEPES buffer (pH 7.4) containing 5 mM potassium phosphate and 20 μM ZnCl2. The solution also contained 5 mM DTT (dithiothreitol), 5 mM MgCl2, and 0.1% PEG 8000. Assays were performed in 96 well plates (Wallec) and employed solutions composed of varying concentrations of a compound of the present invention in 10% DMSO (dimethylsulfoxide). […] After incubation at 30° C. for 30 minutes, the reaction was terminated by diluting the reaction 2.5-fold with a stop buffer containing 1.5 M magnesium acetate, 0.2 M H3PO4, 0.5% BSA (bovine serum albumin), and strepavidin beads (Amersham) at a concentration of 1.3 mg/mL. […] The assay was also carried out without 5 mM potassium phosphate.

Row | IC50 [nM] | Structure (SMILES)
1 | 0.4 | O=C1CCCc2c1ccc(O[C@H](Cn1ccnc1)c1ccccc1)c2CCc1ccccn1 [Compound 24, 6-((1S)-2-Imidazolyl-1-phenylethoxy)-5-(2-(2-pyridyl)ethyl)-2,3,4-trihydronaphthalen-1-one]
2 | 5 | O=C1CCCc2c1ccc(O[C@H](Cn1ccnc1)c1ccccc1)c2CCc1cccc[n+]1[O-] [Compound 25, 6-((1S)-2-Imidazolyl-1-phenylethoxy)-5-[2-(1-oxy(2-pyridyl))ethyl]-2,3,4-trihydronaphthalen-1-one]
3 | 2 | O=C1CCCc2c1ccc(O[C@H](Cn1ccnc1)c1ccccc1)c2CCc1ccncc1 [Compound 26, 6-((1S)-2-Imidazolyl-1-phenylethoxy)-5-(2-(4-pyridyl)ethyl)-2,3,4-trihydronaphthalen-1-one]
4 | 5 | O=C1CCCc2c1ccc(O[C@H](Cn1ccnc1)c1ccccc1)c2CCc1cc[n+]([O-])cc1 [Compound 26a]
5 | 0.85 | O=C1CCCc2c1ccc(O[C@H](Cn1ccnc1)c1ccccc1)c2CCc1cccnc1 [Compound 26b, (S)-6-(-2-imidazol-1-yl-phenyl-ethoxy)-5-(2-pyridin-3-yl-ethyl)-3,4-dihydro-2H-naphthalen-1-one]
6 | 0.2 | O=C1CCCc2c1ccc(O[C@H](Cn1ccnc1)c1ccccc1)c2CCc1cncc2ccccc12 [Compound 26c, (S)-6-(-2-Imidazol-1-yl-1-phenyl-ethoxy)-5-(2-isoquinolin-4-yl-ethyl)-3,4-dihydro-2H-naphthalen-1-one]
7 | 10 | COC(=O)c1ccc(CCc2c(O[C@H](Cn3ccnc3)c3ccccc3)ccc3c2CCCC3=O)cc1 [Compound 27, Methyl 4-(2-[2-((1S)-2-imidazolyl-1-phenylethoxy)-5-oxo-6,7,8-trihydronaphthyl]ethyl}benzoate]
8 | 13 | COC(=O)c1ccc(CCc2c(O[C@H](Cn3ccnc3)c3ccccc3)ccc3c2CCCC3=O)cc1 [Compound 28, Methyl 4-{2-[2-((1S)-2-imidazolyl-1-phenylethoxy)-5-oxo-6,7,8-trihydronaphthyl]ethyl}benzoate]
9 | 0.1 | CNC(=O)c1ccc(CCc2c(O[C@H](Cn3ccnc3)c3ccccc3)ccc3c2CCCC3=O)cc1 [Compound 29]
10 | 0.2 | O=C1CCCc2c1ccc(O[C@H](Cn1ccnc1)c1ccccc1)c2CCc1ccc(F)cc1 [Compound 30, 6-((1S)-2-Imidazolyl-1-phenylethoxy)-5-[2-(4-fluorophenyl)ethyl]-2,3,4-trihydronaphthalen-1-one]
11 | 10 | COC(=O)CCc1c(O[C@H](Cn2ccnc2)c2ccccc2)ccc2c1CCCC2=O [Compound 31, Methyl 3-[2-((1S)-2-imidazolyl-1-phenylethoxy)-5-oxo-6,7,8-trihydronaphthyl]propanoate]
12 | 25 | O=C(O)CCc1c(O[C@H](Cn2ccnc2)c2ccccc2)ccc2c1CCCC2=O [Compound 32, 3-[2-((1S)-2-Imidazolyl-1-phenylethoxy)-5-oxo-6,7,8-trihydronaphthyl]propanoic acid]
13 | 4 | N#Cc1ccc(Cc2c(O[C@H](Cn3ccnc3)c3ccccc3)ccc3c2CCCC3=O)cc1 [Compound 33, 4-{[2-((1S)-2-Imidazolyl-1-phenylethoxy)-5-oxo-6,7,8-trihydronaphthyl]methyl}benzenecarbonitrile]
14 | 15 | O=C1CCCc2c1ccc(O[C@H](Cn1ccnc1)c1ccccc1)c2-c1ccsc1 [Compound 35]
15 | 14 | Nc1c(O[C@H](Cn2ccnc2)c2ccccc2)ccc2c1CCCC2=O [Compound 37a, 5-Amino-6-((S)-2-imidazol-1-yl-1-phenyl-ethoxy)-3,4-dihydro-2H-naphthalen-1-one]
16 | 31 | O=C1CCCc2c1ccc(O[C@H](Cn1ccnc1)c1ccccc1)c2NS(=O)(=O)c1ccccc1 [Compound 38, N-[2-((S)-2-Imidazol-1-yl-1-phenyl-ethoxy)-5-oxo-5,6,7,8-tetrahydro-naphthalen-1-yl]-benzenesulfonamide]
17 | 1 | O=C1CCCc2c1ccc(O[C@H](Cn1ccnc1)c1ccccc1)c2NS(=O)(=O)Cc1ccccc1 [Compound 39, N-[2-((S)-2-Imidazol-1-yl-1-phenyl-ethoxy)-5-oxo-5,6,7,8-tetrahydro-naphthalen-1-yl]-1-phenyl-methanesulfonamide]

Row | IC50 [nM] | Structure (SMILES)
18 | 38 | O=C(Cc1ccccn1)Nc1c(O[C@H](Cn2ccnc2)c2ccccc2)ccc2c1CCCC2=O [Compound 39a, N-[2-((S)-2-Imidazol-1-yl-1-phenyl-ethoxy)-5-oxo-5,6,7,8-tetrahydro-naphthalen-1-yl]-2-pyridin-2-yl-acetamide]
19 | 7.3 | O=C(Nc1c(O[C@H](Cn2ccnc2)c2ccccc2)ccc2c1CCCC2=O)c1ccccn1 [Compound 40, Pyridine-2-carboxylic acid [2-((S)-2-imidazol-1-yl-1-phenyl-ethoxy)-5-oxo-5,6,7,8-tetrahydro-naphthalen-1-yl]-amide]
20 | 0.65 | O=C1CCCc2c1ccc(O[C@H](Cn1ccnc1)c1ccccc1)c2NC(=O)c1nccc2ccccc12 [Compound 40a, Isoquinoline-1-carboxylic acid [2-((S)-2-imidazol-1-yl-1-phenyl-ethoxy)-5-oxo-5,6,7,8-tetrahydro-naphthalen-1-yl]-amide]
21 | 6 | O=C(Nc1c(O[C@H](Cn2ccnc2)c2ccccc2)ccc2c1CCCC2=O)c1cc2ccccc2cn1 [Compound 40b, Isoquinioline-3-carboxylic acid [2-((S)-2-imidazol-1-yl-1-phenyl-ethoxy)-5-oxo-5,6,7,8-tetrahydro-naphthalen-1-yl]-amide]
22 | 1.2 | O=C(Nc1c(O[C@H](Cn2ccnc2)c2ccccc2)ccc2c1CCCC2=O)c1cnccn1 [Compound 40c]
23 | 9 | O=C1CCCc2c1ccc(O[C@H](Cn1ccnc1)c1ccccc1)c2NC(=O)c1ncoc1-c1ccc(Cl)cc1 [Compound 40d, 5-(4-Chloro-phenyl)-oxazole-4-carboxylic acid [2-((S)-2-imidazol-1-yl-1-phenyl-ethoxy)-5-oxo-5,6,7,8-tetrahydro-naphthalen-1-yl]-amide]
24 | 2.5 | O=C(Nc1c(O[C@H](Cn2ccnc2)c2ccccc2)ccc2c1CCCC2=O)c1cccnc1Cl [Compound 40e, N-[2-((S)-2-Imidazol-1-yl-1-phenyl-ethoxy)-5-oxo-5,6,7,8-tetrahydro-naphthalen-1-yl]-2-chloro-nicotinamide]
25 | 13 | O=C(Nc1c(O[C@H](Cn2ccnc2)c2ccccc2)ccc2c1CCCC2=O)c1cccnc1Oc1ccccc1 [Compound 40f, N-[2-((S)-2-Imidazol-1-yl-1-phenyl-ethoxy)-5-oxo-5,6,7,8-tetrahydro-naphthalen-4-1-yl]-2-phenoxy-nicotinamide]
26 | 0.8 | O=C1CCCc2c1ccc(O[C@H](Cn1ccnc1)c1ccccc1)c2NC(=O)c1cccc2cccnc12 [Compound 40g, Quinoline-8-carboxylic acid [2-((S)-2-imidazol-1-yl-1-phenyl-ethoxy)-5-oxo-5,6,7,8-tetrahydro-naphthalen-1-yl]-amide]
27 | 14 | CC(C)(C)OC(=O)NCc1c(O[C@H](Cn2ccnc2)c2ccccc2)ccc2c1CCCC2=O [Compound 41, [2-((S)-2-Imidazol-1-yl-1-phenyl-ethoxy)-5-oxo-5,6,7,8-tetrahydro-naphthalen-1-ylmethyl]-carbamic acid tert-butyl ester]
28 | 1.5 | O=C1CCCc2c1ccc(O[C@H](Cn1ccnc1)c1ccccc1)c2CNS(=O)(=O)c1ccccc1 [Compound 42, N-[2-((S)-2-Imidazol-1-y-1-phenyl-71-ethoxy)-5-oxo-5,6,7,8-tetrahydro-naphthalen-1-ylmethyl]-benzenesulfonamide]
29 | 1.1 | COc1ccc(S(=O)(=O)NCc2c(O[C@H](Cn3ccnc3)c3ccccc3)ccc3c2CCCC3=O)cc1 [Compound 42a, N-[2-((S)-2-Imidazol-1-yl-1-phenyl-ethoxy)-5-oxo-5,6,7,8-tetrahydro-naphthalen-1-ylmethyl]-4-methoxy-benzenesulfonamide]
30 | 3.5 | O=C1CCCc2c1ccc(O[C@H](Cn1ccnc1)c1ccccc1)c2CNS(=O)(=O)c1ccc(F)cc1F [Compound 42b, 2,4-Difluoro-N-[2-((S)-2-imidazol-1-yl-1-phenyl-ethoxy)-5-oxo-5,6,7,8-tetrahydro-naphthalen-1-ylmethyl]-benzenesulfonamide; compound with trifluoro-acetic acid]
31 | 3.5 | COC(=O)c1ccccc1S(=O)(=O)NCc1c(O[C@H](Cn2ccnc2)c2ccccc2)ccc2c1CCCC2=O [Compound 42c]
32 | 2 | O=C1CCCc2c1ccc(O[C@H](Cn1ccnc1)c1ccccc1)c2CNS(=O)(=O)c1cc(Cl)sc1Cl [Compound 42d, 2,5-Dichloro-thiophene-3-sulfonic acid [2-((S)-2-imidazol-1-yl-1-phenyl-ethoxy)-5-oxo-5,6,7,8-tetrahydro-naphthalen-1-ylmethyl]-amide; compound with trifluoro-acetic acid]
33 | 1.5 | O=C1CCCc2c1ccc(O[C@H](Cn1ccnc1)c1ccccc1)c2CNS(=O)(=O)c1cccc(Cl)c1 [Compound 42e, 3-Chloro-N-[2-((S)-2-imidazol-1-yl-1-phenyl-ethoxy)-5-oxo-5,6,7,8-tetrahydro-naphthalen-1-ylmethyl]-benzenesulfonamide; compound with trifluoro-acetic acid]

Row | Structure (SMILES) | IC50 [nM]
34 | O=C1CCCc2c1ccc(O[C@H](Cn1ccnc1)c1ccccc1)c2Br [Compound 34, 6-((1S)-2-Imidazolyl-1-phenylethoxy)-5-bromo-2,3,4-trihydronaphthalen-1-one] | 25
35 | O=C1CCCc2c1ccc(O[C@H](Cn1ccnc1)c1ccccc1)c2-c1ccoc1 [Compound 36] | 7
